Test results from EP0795330A1, “Medicament for the treatment of insomnia” (ELI LILLY AND COMPANY, priority 1996, dated 1997).

Columns and labels:
5-HT1C receptor = biological target: T1, 5-HT1C receptor (Homo sapiens, UniProt P28335); assay: pharmacological studies, 5-HT1C receptor activity
T1 sequence (P28335 33-458): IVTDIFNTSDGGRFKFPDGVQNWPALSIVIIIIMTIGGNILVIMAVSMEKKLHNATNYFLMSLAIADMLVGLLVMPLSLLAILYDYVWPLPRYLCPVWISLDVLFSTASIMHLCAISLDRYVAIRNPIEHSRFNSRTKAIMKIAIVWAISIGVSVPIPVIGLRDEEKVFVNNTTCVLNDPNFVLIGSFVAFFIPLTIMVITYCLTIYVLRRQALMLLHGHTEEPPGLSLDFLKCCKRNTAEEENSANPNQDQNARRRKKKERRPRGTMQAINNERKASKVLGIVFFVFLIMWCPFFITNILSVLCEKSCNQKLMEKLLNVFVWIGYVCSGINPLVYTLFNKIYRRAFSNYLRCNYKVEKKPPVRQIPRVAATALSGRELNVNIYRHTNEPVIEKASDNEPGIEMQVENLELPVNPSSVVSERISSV

[1] = detection of radiolabelled olanzapine in saliva; type: in vivo, patients
Protocol: For example, in the treatment of adult humans, dosages of from 5 to 25 mg per day may be used. A once a day dosage is normally sufficient. For treatment of insomnia, a dose range of from 5 to 100 mg, is suitable, while a dosage of from 5 to 25 mg per day is preferred.

Cc1cc2c(s1)Nc1ccccc1N=C2N1CCN(C)CC1 [olanzapine, 2-methyl-4-(4-methyl-l-piperazinyl)-10H-thieno[2,3-b][1,5] benzodiazepine]
activity at the 5-HT1C receptor (5-HT1C receptor): active | detection in the saliva [1]: can be detected in the saliva
